Experimental data reported in patent publication US20240366524A1, “COMPOSITION AND METHOD FOR TREATING OR PREVENTING INFECTIONS” (CHITOGEL LIMITED, priority 2021, published 2024).
“Also recorded” adds a separate entry of the source.

Legend:
S. epidermidis = assay: Planktonic growth of nasal clinical isolates (OD 595 nm, 24 h); type: cell-based, Staphylococcus epidermidis
Description: (§1) The effect of glycerol on bacterial growth was determined by analysis of nasal bacterial isolates from subjects participating in the trial described in Example 3. The bacterial isolates were cultured for 24 hours in Nutrient Broth (NB) and Brain-Heart Infusion (BHI) which further contained glycerol in an amount of either 20% v/v, or 40% v/v, or 0% glycerol (control).
(§2) A total of 22 nasal clinical isolates including C. accolens (n=4), C. propinquum(n=3), C. pseudodiptheriticum (n=3), S. epidermidis (n=4), S. aureus (n=4) and P. aeruginosa (n=4) were used in this experiment. Prior to starting experiments, isolates were grown in tryptic soya agar (TSA) and incubated at 37° C. under aerobic conditions for 24 hours, except for C. accolens which was incubated for 48 hours.
(§3) Glycerol at 20% was prepared by dilution in nutrient broth (NB) media. Glycerol treatments at 20% concentrations were prepared in a 96-well microtitration plate containing 50 μL NB. A single colony of bacterial isolates such as C. accolens, C. propinquum, C. pseudodiptheriticum, S. epidermidis, S. aureus and P. aeruginosa from overnight cultures was suspended with 0.9% saline (aqueous NaCl) to McFarland standard of 0.5 and diluted 1:100 in NB growth media. Next, 50 μL of the diluted bacterial suspension was then added to the treatments in each well and incubated aerobically for 24 hours at 37° C. A negative control (media without bacteria and treatment) and untreated growth control (media with bacteria but no treatment) were used in this assay. After incubation, the planktonic bacterial growth was determined by measuring the optical density (OD) at 595 nm using microplate absorbance reader (iMark™, BIO-RAD). For each bacterial strain, six replicate experiments were performed to assess bacterial growth.

[1] = tested on: commensal and pathogenic bacterial isolates; assay: Planktonic growth of nasal clinical isolates (OD 595 nm, 24 h), all isolates; type: cell-based
Description: as §1, §2, §3

C. propinquum = assay: Planktonic growth of nasal clinical isolates (OD 595 nm, 24 h); type: cell-based, Corynebacterium propinquum
Description: as §1, §2
Glycerol at 20% was prepared by dilution in nutrient broth (NB) media. Glycerol treatments at 20% concentrations were prepared in a 96-well microtitration plate containing 50 μL NB. A single colony of bacterial isolates such as C. accolens, C. propinquum, C. pseudodiptheriticum, S. epidermidis, S. aureus and P. aeruginosa from overnight cultures was suspended with 0.9% saline (aqueous NaCl) to McFarland standard of 0.5 and diluted 1:100 in NB growth media. […] After incubation, the planktonic bacterial growth was determined by measuring the optical density (OD) at 595 nm using microplate absorbance reader (iMark™, BIO-RAD). […]

P. aeruginosa [2] = assay: Cellulose disk on nutrient agar survival test (Example 6); type: cell-based; details: 48 h aerobic
Source text: The growth of S. aureus and P. aeruginosa in the presence of glycerol, chitosan-dextran polymer, or a combination of glycerol and chitosan-dextran polymer, was investigated according to the following methodology: • (A) Cellulose disks (approximately 1 cm in diameter) pre-soaked in S. aureus or P. aeruginosa cultures were placed on the surface of sterile nutrient agar plates. A test substance was placed on top of the soaked disks to allow contact with both the nutrient agar and a test substance. An untreated control agar plate contained only the soaked cellulose disk, with no test substance applied. The test substances were as described in Example 5, namely: (1) 20% v/v glycerol in water; (2) CS-DA-GLY; and (3) CS-DA. All test and control cellulose disk plates were incubated for 48±1 hours at conditions appropriate for each microorganism (e.g. aerobic conditions for S. aureus and P. aeruginosa, and anaerobic conditions for C. acnes). […] Following incubation for 72 hours 40 minutes at conditions appropriate for each microorganism, the surviving test microorganisms were recorded for each test and control plate. • (B) The same methodology as (A) was performed, but the cellulose disk plates additionally included the supernatant of a C. acnes culture that was grown on a substrate comprising 20% glycerol. […]

P. aeruginosa [3] = assay: Planktonic growth of nasal clinical isolates (OD 595 nm, 24 h); type: cell-based
Description: as §1, §2, §3

S. aureus [4] = assay: as above; type: cell-based
Description: as §1, §2, §3

C. accolens = assay: as above; type: cell-based; details: NB and BHI
Description: as §1, §2, §3

C. acnes = assay: Cellulose disk on nutrient agar survival test (Example 5); type: cell-based; details: 48 hours incubation, anaerobic; glycerol as 20% in water
Source text: The growth of C. acnes in the presence of glycerol, chitosan-dextran polymer (CS-DA), and a combination of glycerol and chitosan-dextran polymer (CS-DA-GLY) was investigated according to the following methodology: • Cellulose disks (approximately 1 cm in diameter) pre-soaked in C. acnes culture were placed on the surface of sterile nutrient agar plates. A test substance was placed on top of the soaked disks to allow contact with both the nutrient agar and a test substance. An untreated control agar plate contained only the soaked cellulose disk, with no test substance applied. The test substances were: (1) 20% glycerol in water; (2) a composition comprising aldehyde-derivatised dextran polymer cross linked with N-succinyl chitosan polymer, an aqueous phosphate buffer and approximately 20% v/v glycerol, prepared according to the description above in Example 2 (herein referred to as CS-DA-GLY); and (3) a composition comprising aldehyde-derivatised dextran polymer cross linked with N-succinyl chitosan polymer, and an aqueous phosphate buffer (herein referred to as CS-DA). That is, the composition of test substances (2) and (3) differ only in the presence and absence of glycerol. […] Following incubation for 112 hours 5 minutes at conditions appropriate for the microorganism, the surviving test microorganisms were recorded for each test and control plate.

C. pseudodiphtheriticum = assay: Planktonic growth of nasal clinical isolates (OD 595 nm, 24 h); type: cell-based, Corynebacterium pseudodiphtheriticum
Description: as §1, §2, §3

S. aureus [5] = assay: Cellulose disk on nutrient agar survival test (Example 6); type: cell-based; details: 48 h aerobic
Source text: The growth of S. aureus and P. aeruginosa in the presence of glycerol, chitosan-dextran polymer, or a combination of glycerol and chitosan-dextran polymer, was investigated according to the following methodology: • (A) Cellulose disks (approximately 1 cm in diameter) pre-soaked in S. aureus or P. aeruginosa cultures were placed on the surface of sterile nutrient agar plates. A test substance was placed on top of the soaked disks to allow contact with both the nutrient agar and a test substance. An untreated control agar plate contained only the soaked cellulose disk, with no test substance applied. The test substances were as described in Example 5, namely: (1) 20% v/v glycerol in water; (2) CS-DA-GLY; and (3) CS-DA. All test and control cellulose disk plates were incubated for 48±1 hours at conditions appropriate for each microorganism (e.g. aerobic conditions for S. aureus and P. aeruginosa, and anaerobic conditions for C. acnes). Following incubation, the cellulose disks were each aseptically removed from the agar surface and the microorganism contents of the cellulose disks were individually extracted using sterile phosphate-buffered saline solution. Each of the resulting microorganism suspensions were serially diluted 1:10 in sterile phosphate-buffered saline solution and 1.000 mL of the appropriate dilutions were plated in singlet to sterile growth media appropriate for the target test microorganism. Following incubation for 72 hours 40 minutes at conditions appropriate for each microorganism, the surviving test microorganisms were recorded for each test and control plate. • (B) The same methodology as (A) was performed, but the cellulose disk plates additionally included the supernatant of a C. acnes culture that was grown on a substrate comprising 20% glycerol. […]

[6] = 20% glycerol, Nutrient Broth, 24 hours
[7] = 20% v/v glycerol, media (NB and BHI)
[8] = test set A, no C. acnes supernatant, glycerol as 20% v/v in water

## OCC(O)CO [glycerol]
S. epidermidis; [6]
  planktonic growth of S. epidermidis vs untreated growth control: significantly inhibit; also recorded: significantly reduced
S. epidermidis; [7]
  growth of S. epidermidis compared to control: inhibited
S. epidermidis; 40% v/v glycerol, NB and BHI
  growth of S. epidermidis: significant inhibitory effect
[1]; 20% glycerol, BHI broth
  growth of commensal and pathogenic bacterial isolates: significantly inhibit
[1]; 40% glycerol, BHI broth
  growth of commensal and pathogenic bacterial isolates: significantly inhibit
[1]; 40% glycerol, NB
  growth of commensal and pathogenic bacterial isolates: significantly inhibit
C. propinquum; [7]
  growth of C. propinquum compared to control: inhibited
C. propinquum; 40% v/v glycerol, NB and BHI
  growth of C. propinquum: significant inhibitory effect
P. aeruginosa [2]; [8]
  growth of P. aeruginosa compared to control: decrease
P. aeruginosa [2]; test set C, with C. acnes supernatant (grown in the presence of glycerol)
  growth of P. aeruginosa compared to control: much more substantial decrease; also recorded: reduction
P. aeruginosa [3]; [6]
  planktonic growth of P. aeruginosa vs untreated growth control: significantly inhibit; also recorded: significantly reduced
P. aeruginosa [3]; [7]
  growth of P. aeruginosa compared to control: inhibited
P. aeruginosa [3]; 40% v/v glycerol, NB and BHI
  growth of P. aeruginosa: significant inhibitory effect
S. aureus [4]; [6]
  planktonic growth of S. aureus vs untreated growth control: significantly reduced; also recorded: significantly inhibit
S. aureus [4]; [7]
  growth of S. aureus compared to control: inhibited
S. aureus [4]; 40% v/v glycerol, NB and BHI
  growth of S. aureus: significant inhibitory effect
C. accolens; 20% v/v glycerol
  growth of C. accolens compared to control: either unaffected or promoted
C. accolens; 40% v/v glycerol
  growth of C. accolens: significant inhibitory effect
C. acnes
  growth (percent survival) of C. acnes compared to untreated control: supported
C. pseudodiphtheriticum; [6]
  planktonic growth of C. pseudodiphtheriticum vs untreated growth control: significantly inhibit; also recorded: significantly reduced
C. pseudodiphtheriticum; [7]
  growth of C. pseudodiphtheriticum compared to control: inhibited
C. pseudodiphtheriticum; 40% v/v glycerol, NB and BHI
  growth of C. pseudodiphtheriticum: significant inhibitory effect
S. aureus [5]; [8]
  growth of S. aureus compared to control: decrease
S. aureus [5]; test set B, comprising C. acnes supernatant (method b251: culture grown on 20% glycerol substrate)
  growth of S. aureus compared to control: decrease
S. aureus [5]; test set C, comprising C. acnes supernatant (method b251: glycerol-free substrate; b254: grown in the presence of glycerol)
  growth of S. aureus compared to control: decrease
